The term EC50 denotes the concentration at which the effect is half-maximal.

Molecules are shown by their SMILES. Some results are limits rather than exact numbers.

The test system of one assay is U2OS_Bim cells. Put plainly: Apoptosis inhibition assay (Bim-induced apoptosis, cell viability by ATP level). Type of assay: cell-based. The settings on record: U2OS_Bim cells; estimated (*Est.) / preliminary results; numbering of Tables 4a/4b; read-out: EC50. Summed up:
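Apoptosis was triggered by doxycycline (0.1 μg/mL) induction of Bim, one hour after compound addition to U2OS_Bim cells. Survival was measured after 24 h from cellular ATP (CellTiter-Glo), relative to DMSO, with zVAD at 20 μM as rescue control. Data are duplicate means, some estimated from preliminary results.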
`Cc1cc(-c2cc(F)c(=O)n(Cc3ccc4nnn(C)c4c3)c2)nc(S(=O)(=O)CCCn2cnc3ccccc32)n1` [Compound 337, 5-(2-((3-(1H-benzo[d]imidazol-1-yl)propyl)sulfonyl)-6-methylpyrimidin-4-yl)-3-fluoro-1-((1-methyl-1H-benzo[d][1,2,3]triazol-6-yl)methyl)pyridin-2 (1H)-one]: the EC50 is 1 to 1000 nM.

On to `Cc1cc(-c2cc(F)c(=O)n(Cc3ccc4c(c3)OCO4)c2)nc(S(=O)(=O)CCCn2cnc3ccccc32)n1` [Compound 338, 5-(2-((3-(1H-benzo[d]imidazol-1-yl)propyl)sulfonyl)-6-methylpyrimidin-4-yl)-1-(benzo[d][1,3]dioxol-5-ylmethyl)-3-fluoropyridin-2 (1H)-one], for which the EC50 is 1 to 1000 nM.

Still in this assay, the particulars now being: U2OS_Bim cells; means of duplicates; numbering of Tables 4a/4b; read-out: EC50.
For `Cc1cc(-c2cc(F)c(=O)n(Cc3ccc4c(c3)OCO4)c2)nc(S(=O)(=O)CCC(OCc2ccc(F)cc2F)c2ccccc2)n1` (centres unmarked) [Compound 317, 1-(benzo[d][1,3]dioxol-5-ylmethyl)-5-(2-((3-((2,4-difluorobenzyl)oxy)-3-phenylpropyl)sulfonyl)-6-methylpyrimidin-4-yl)-3-fluoropyridin-2 (1H)-one], the EC50 was in the range of 1 to 1000 nM.

Regarding `Cc1cc(-c2cc(F)c(=O)n(Cc3ccc4c(c3)OCO4)c2)nc(S(=O)(=O)CCC(OCc2ccccc2F)c2ccccc2)n1` (centres unmarked) [Compound 318, 1-(benzo[d][1,3]dioxol-5-ylmethyl)-3-fluoro-5-(2-(3-(2-fluorobenzyloxy)-3-phenylpropylsulfonyl)-6-methylpyrimidin-4-yl)pyridin-2 (1H)-one], the EC50 was in the range of 1 to 1000 nM.

Take `Cc1cc(-c2cc(F)c(=O)n(Cc3ccc4nsnc4c3)c2)nc(S(=O)(=O)CCC(OCc2ccccc2F)c2ccccc2)n1` (centres unmarked) [Compound 319, 1-(benzo[c][1,2,5]thiadiazol-5-ylmethyl)-3-fluoro-5-(2-(3-(2-fluorobenzyloxy)-3-phenylpropylsulfonyl)-6-methylpyrimidin-4-yl)pyridin-2 (1H)-one]: the concentration giving a half-maximal response (EC50) is 1 to 1000 nM.

Consider `Cc1cc(-c2cc(F)c(=O)n(Cc3cccc4c3OCO4)c2)nc(S(=O)(=O)CCC(OCc2ccccc2F)c2ccccc2)n1` (centres unmarked) [Compound 320, 1-(benzo[d][1,3]dioxol-4-ylmethyl)-3-fluoro-5-(2-(3-(2-fluorobenzyloxy)-3-phenylpropylsulfonyl)-6-methylpyrimidin-4-yl)pyridin-2 (1H)-one], for which the EC50 fell in the range of 1 to 1000 nM.

On to `COc1cc(Cn2cc(-c3cc(C)nc(S(=O)(=O)CCC(OCc4ccccc4F)c4ccccc4)n3)cc(F)c2=O)ccn1` (centres unmarked) [Compound 321, 3-fluoro-5-(2-(3-(2-fluorobenzyloxy)-3-phenylpropylsulfonyl)-6-methylpyrimidin-4-yl)-1-((2-methoxypyridin-4-yl)methyl)pyridin-2 (1H)-one], for which the 50% effective concentration (EC50) was in the range of 1 to 1000 nM.

Turning to `Cc1cc(-c2cc(F)c(=O)n(Cc3ccc4nc[nH]c4c3)c2)nc(S(=O)(=O)CCC(OCc2ccccc2F)c2ccccc2)n1` (centres unmarked) [Compound 322, 1-((1H-benzo[d]imidazol-6-yl)methyl)-3-fluoro-5-(2-(3-(2-fluorobenzyloxy)-3-phenylpropylsulfonyl)-6-methylpyrimidin-4-yl)pyridin-2 (1H)-one], the EC50 was 1 to 1000 nM.

`Cc1cc(-c2cc(F)c(=O)n(Cc3ccc4c(c3)no[n+]4[O-])c2)nc(S(=O)(=O)CCC(OCc2ccccc2F)c2ccccc2)n1` (centres unmarked) [Compound 323]: the EC50 was in the range of 1 to 1000 nM.

Regarding `COc1ccc(Cn2cc(-c3cc(C)nc(S(C)(=O)=O)n3)cc(F)c2=O)cc1OC` [Compound 324, 1-(3,4-dimethoxybenzyl)-3-fluoro-5-(6-methyl-2-(methylsulfonyl)pyrimidin-4-yl)pyridin-2 (1H)-one], the EC50 is 1000 to 10000 nM.

Consider `Cc1cc(-c2c[nH]c(=O)c(F)c2)nc(S(=O)(=O)CCC(OCc2ccccc2F)c2ccccc2)n1` (centres unmarked) [Compound 325, 3-fluoro-5-(2-(3-(2-fluorobenzyloxy)-3-phenylpropylsulfonyl)-6-methylpyrimidin-4-yl)pyridin-2 (1H)-one], for which the 50% effective concentration (EC50) fell in the range of 1000 to 10000 nM.

Regarding `Cc1cc(-c2cc(F)c(=O)n(Cc3ccc4scnc4c3)c2)nc(S(=O)(=O)CCC(OCc2ccccc2F)c2ccccc2)n1` (centres unmarked) [Compound 326, 1-(benzo[d]thiazol-5-ylmethyl)-3-fluoro-5-(2-(3-(2-fluorobenzyloxy)-3-phenylpropylsulfonyl)-6-methylpyrimidin-4-yl)pyridin-2 (1H)-one], the half-maximal effective concentration (EC50) was in the range of 1 to 1000 nM.

In the case of `Cc1cc(-c2cc(F)c(=O)n(Cc3ccc4c(cnn4C)c3)c2)nc(S(=O)(=O)CCC(OCc2ccccc2F)c2ccccc2)n1` (centres unmarked) [Compound 327, 3-fluoro-5-(2-(3-(2-fluorobenzyloxy)-3-phenylpropylsulfonyl)-6-methylpyrimidin-4-yl)-1-((1-methyl-1H-indazol-5-yl)methyl)pyridin-2 (1H)-one], the EC50 fell in the range of 1 to 1000 nM.

With `Cc1cc(-c2cnc(OCc3ccc4c(cnn4C)c3)c(F)c2)nc(S(=O)(=O)CCC(OCc2ccccc2F)c2ccccc2)n1` (centres unmarked) [Compound 328, 5-((3-fluoro-5-(2-(3-(2-fluorobenzyloxy)-3-phenylpropylsulfonyl)-6-methylpyrimidin-4-yl)pyridin-2-yloxy)methyl)-1-methyl-1H-indazole], the EC50 is less than 100000 nM.

On to `Cc1cc(-c2cc(F)c(=O)n(Cc3ccc4ocnc4c3)c2)nc(S(=O)(=O)CCC(OCc2ccccc2F)c2ccccc2)n1` (centres unmarked) [Compound 329, 1-(benzo[d]oxazol-5-ylmethyl)-3-fluoro-5-(2-((3-((2-fluorobenzyl)oxy)-3-phenylpropyl)sulfonyl)-6-methylpyrimidin-4-yl)pyridin-2 (1H)-one], for which the EC50 was 1 to 1000 nM.

Regarding `Cc1cc(-c2cc(F)c(=O)n(Cc3ccc4c(c3)OCCO4)c2)nc(S(=O)(=O)CCC(OCc2ccccc2F)c2ccccc2)n1` (centres unmarked) [Compound 331, 1-((2,3-dihydrobenzo[b][1,4]dioxin-6-yl)methyl)-3-fluoro-5-(2-(3-(2-fluorobenzyloxy)-3-phenylpropylsulfonyl)-6-methylpyrimidin-4-yl)pyridin-2 (1H)-one], the EC50 lay within 1 to 1000 nM.

Turning to `C#CCOc1cc(Cn2cc(-c3cc(C)nc(S(=O)(=O)CCC(OCc4ccccc4F)c4ccccc4)n3)cc(F)c2=O)ccc1OC` (centres unmarked) [Compound 332, 3-fluoro-5-(2-((3-((2-fluorobenzyl)oxy)-3-phenylpropyl)sulfonyl)-6-methylpyrimidin-4-yl)-1-(4-methoxy-3-(prop-2-yn-1-yloxy)benzyl)pyridin-2 (1H)-one], the half-maximal effective concentration (EC50) was 1 to 1000 nM.

As for `Cc1cc(-c2cc(F)c(=O)n(Cc3ccc4c(c3)OCO4)c2)nc(S(=O)(=O)CCC(Oc2cccnc2)c2ccccc2)n1` (centres unmarked) [Compound 333, 1-(benzo[d][1,3]dioxol-5-ylmethyl)-3-fluoro-5-(6-methyl-2-((3-phenyl-3-(pyridin-3-yloxy)propyl)sulfonyl)pyrimidin-4-yl)pyridin-2 (1H)-one], the concentration for a half-maximal effect (EC50) was in the range of 1 to 1000 nM.

For `CS(=O)(=O)c1nc(CF)cc(-c2cc(F)c(=O)n(Cc3ccc4c(c3)OCO4)c2)n1` [Compound 334, 1-(benzo[d][1,3]dioxol-5-ylmethyl)-3-fluoro-5-(6-(fluoromethyl)-2-(methylsulfonyl)pyrimidin-4-yl)pyridin-2 (1H)-one], the half-maximal effective concentration (EC50) was 1000 to 10000 nM.

Regarding `O=c1c(F)cc(-c2cc(CF)nc(S(=O)(=O)CCC(OCc3ccccc3F)c3ccccc3)n2)cn1Cc1ccc2c(c1)OCO2` (centres unmarked) [Compound 335, 1-(benzo[d][1,3]dioxol-5-ylmethyl)-3-fluoro-5-(2-((3-((2-fluorobenzyl)oxy)-3-phenylpropyl)sulfonyl)-6-(fluoromethyl)pyrimidin-4-yl)pyridin-2 (1H)-one], the EC50 was 1 to 1000 nM.

(Values after US11725000B2, “Apoptosis inhibitors” (National Institute of Biological Sciences, Beijing, priority 2017, dated 2023).)
